The subject of test [1] is HeLa. The test can be described thus: Induction of mitotic arrest in human HeLa cells with expressing H2B-GFP assessed as cells formed multilobed nuclei at 100 nM. Format: functional, cell-based.
Test [2] addresses Serine/threonine-protein kinase PLK1 (Homo sapiens) (UniProt P53350). The test is described as follows: Inhibition of Plk1 in human HeLa cells assessed as low level of cyclin B in total lysates of cells arrested in mitosis at 100 nM for 13 hr after the second thymidine release by immunoblot analysis. (In general: A western blot detects proteins with antibodies after separation by electrophoresis.)

Test [3] shares this target. The test can be described thus: Inhibition of Plk1 in human HeLa cells assessed as high level of cyclin B in total lysates of cells arrested in mitosis at 50 ng/ml for 13 hr after the second thymidine release by immunoblot analysis.
The test system of test [4] is HeLa. The test is described as follows: Induction of mitotic arrest in human HeLa cells s stably expressing CENPA-GFP assessed as attachment of kinetochores to microtubule at 10 uM for 2 hrs by live cell imaging analysis. The class given is functional, cell-based.
Test [5] relates to HeLa. The test is described as follows: Induction of mitotic arrest in human HeLa cells assessed as microtubule structures at 100 nM incubated for 2 hrs after cold treatment by immunofluorescence analysis. Format: functional, cell-based.
In test [6] the test system is HeLa. The test can be described thus: Induction of mitotic arrest in human HeLa cells assessed as appearance of kinetochore plates connected to few microtubules and lateral attachment at 100 nM incubated for 2 hrs after cold treatment by transmission electron microscopy. Format: functional, cell-based.
The test system of test [7] is HeLa. The test is described as follows: Induction of mitotic arrest in human HeLa cells assessed as dim kinetochore signal in prometaphase arrested cells at 100 nM for 2 hrs by immunofluorescence analysis. Format: functional, cell-based.
Test [8] relates to HeLa. The test can be described thus: Induction of mitotic arrest in human HeLa cells with stably express GFP-tagged histone H2B assessed as decrease in prometaphase after thymidine release. Format: functional, cell-based.
Test [9] has as its system HeLa. The test can be described thus: Induction of mitotic arrest in human HeLa cells assessed as appearance of collapse spindle formation at 100 nM for 120 mins after thymidine release in the presence of MG132 by immunofluorescence microscopy. Format: functional, cell-based.
Test [10] deals with HeLa. The test can be described thus: Induction of mitotic arrest in human HeLa cells with expressing H2B-GFP assessed as enter the apoptosis at 100 nM. The class given is functional, cell-based.
For test [11], the system named is HeLa. The test is described as follows: Induction of mitotic arrest in human HeLa cells assessed as increase of cell population in prophase incubated for 6 hrs after thymidine release. Format: functional, cell-based.
For test [12], the system named is HeLa. The test can be described thus: Induction of mitotic arrest in human HeLa cells s stably expressing CENPA-GFP assessed as appear on mitotic microtubule at 100 nM for 4 hr release after NEBD by immunofluorescence analysis. Format: functional, cell-based.
Test [13] has as its system HeLa. The test is described as follows: Induction of mitotic arrest in human HeLa cells s stably expressing CENPA-GFP assessed as spindles lost astral microtubules at 10 uM within 10 to 30 mins by live cell imaging analysis. Particulars: time 10-30 min. Format: functional, cell-based.
The test system of test [14] is HeLa. The test can be described thus: Induction of mitotic arrest in human HeLa cells s stably expressing CENPA-GFP assessed as prophase microtubule asters at 100 nM for 4 hr after release by immunofluorescence analysis. The class given is functional, cell-based.
The subject of test [15] is HeLa. The test can be described thus: Induction of mitotic arrest in human HeLa cells assessed as cell population in prophase incubated for 4 hrs after thymidine release relative to control relative to control. Format: functional.
Test [16] has as its system HeLa. The test can be described thus: Induction of mitotic arrest in human HeLa cells s stably expressing CENPA-GFP assessed as appearance of kinetochore pairs lose at 10 uM for 60 mins by live cell imaging analysis. Format: functional, cell-based.
Test [17] concerns HeLa. The test can be described thus: Induction of mitotic arrest in human HeLa cells with expressing H2B-GFP assessed as cells formed multilobed nuclei at 100 nM in the presence of hesperadin. The class given is functional, cell-based.
In test [18] the test system is HeLa. The test is described as follows: Induction of mitotic arrest in human HeLa cells assessed as increase of cell population in prophase incubated for 3 hrs after thymidine release. Format: functional, cell-based.
For test [19], the system named is HeLa. The test is described as follows: Induction of mitotic arrest in human HeLa cells assessed as weakly centrosome in prometaphase arrested cells at 100 nM for 2 hrs by immunofluorescence analysis. Format: functional, cell-based.
Test [20] deals with HeLa. The test is described as follows: Induction of mitotic arrest in human HeLa cells assessed as appearance of shortened spindle formation at 100 nM for 60 mins after thymidine release in the presence of MG132 by immunofluorescence microscopy. The class given is functional, cell-based.
For test [21], the system named is HeLa. The test is described as follows: Induction of mitotic arrest in human HeLa cells s stably expressing CENPA-GFP assessed as microtubules instantaneously organized to monopolar spindle at 100 nM for 4 hrs after NEBD by immunofluorescence analysis. The class given is functional, cell-based.
The test system of test [22] is HeLa. The test is described as follows: Induction of mitotic arrest in human HeLa cells assessed as appearance of kinetochore in opposite side of the chromosomes at 100 nM incubated for 2 hrs after cold treatment by transmission electron microscopy. Format: functional, cell-based.
In test [23] the test system is HeLa. The test can be described thus: Induction of mitotic arrest in human HeLa cells stably expressing CENPA-GFP assessed as appearance of shortened spindle formation at 10 uM incubated for 120 mins by live cell imaging analysis. Format: functional, cell-based.
In test [24] the test system is HeLa. The test can be described thus: Induction of mitotic arrest in human HeLa cells s stably expressing CENPA-GFP assessed as focus on poles at 10 uM within 10 to 30 mins by live cell imaging analysis. Format: functional, cell-based. To be noted: time 10-30 min.
Test [25] has as its system HeLa. The test is described as follows: Induction of mitotic arrest in human HeLa cells assessed as appearance of spindles lose the focused poles at 100 nM for 30 mins after thymidine release in the presence of MG132 by immunofluorescence microscopy. The class given is functional, cell-based.
Test [26] has as its system HeLa. The test can be described thus: Induction of mitotic arrest in human HeLa cells with stably express GFP-tagged histone H2B assessed as chromosome condensation measured at 730 mins after thymidine release. Format: functional, cell-based.
Test [27] has as its system HeLa. The test can be described thus: Induction of mitotic arrest in human HeLa cells s stably expressing CENPA-GFP assessed as spindle poles often broadened at 10 uM for 30 mins by live cell imaging analysis. The class given is functional, cell-based.
Test [28] has as its system HeLa. The test can be described thus: Induction of mitotic arrest in human HeLa cells assessed as K-fibers persisted cells at […] incubated for 2 hrs after cold treatment by immunofluorescence analysis. Format: functional, cell-based.
Test [29] deals with Serine/threonine-protein kinase PLK1 (Homo sapiens) (UniProt P53350). Particulars: HeLa, dose 100.0 nM, time 12.0 min.
Test [30] deals with HeLa. The test is described as follows: Induction of mitotic arrest in human HeLa cells assessed as appearance of kinetochore plates arranged on the spindle center at […] incubated for 2 hrs after cold treatment by transmission electron microscopy. Format: functional, cell-based.
The subject of test [31] is HeLa. The test can be described thus: Induction of mitotic arrest in human HeLa cells assessed as appearance of microtubule bundles visible at many kinetochores at […] incubated for 2 hrs after cold treatment by transmission electron microscopy. Format: functional, cell-based.
The target of test [32] is Serine/threonine-protein kinase PLK1 (Homo sapiens) (UniProt P53350). To be noted: HeLa, dose 100.0 nM, time 12.0 min. The source holds these as a separate data set.

The source made the active and inactive calls. The rule behind the calls is not given here. Residues, ends and D or L forms follow the SMILES beside them. *: point of attachment. Cbz = O=C(OCc1ccccc1)*

Serine/threonine-protein kinase PLK1 (Homo sapiens), sequence (P53350 whole entry): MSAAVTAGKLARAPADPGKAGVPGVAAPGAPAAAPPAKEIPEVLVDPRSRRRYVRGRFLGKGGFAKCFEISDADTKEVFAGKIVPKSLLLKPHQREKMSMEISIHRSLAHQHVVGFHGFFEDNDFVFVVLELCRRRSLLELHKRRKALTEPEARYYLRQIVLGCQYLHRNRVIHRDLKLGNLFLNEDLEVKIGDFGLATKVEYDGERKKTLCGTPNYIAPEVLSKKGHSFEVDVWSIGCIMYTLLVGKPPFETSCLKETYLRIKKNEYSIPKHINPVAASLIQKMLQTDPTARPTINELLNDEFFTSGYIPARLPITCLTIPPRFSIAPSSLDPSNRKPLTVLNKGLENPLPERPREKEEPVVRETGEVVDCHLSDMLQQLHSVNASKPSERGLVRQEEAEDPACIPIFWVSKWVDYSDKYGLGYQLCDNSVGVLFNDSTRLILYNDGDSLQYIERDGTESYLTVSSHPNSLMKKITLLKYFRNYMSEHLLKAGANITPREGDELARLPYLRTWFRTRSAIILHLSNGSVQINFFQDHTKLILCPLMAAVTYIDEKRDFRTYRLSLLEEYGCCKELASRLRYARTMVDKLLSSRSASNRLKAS

As to `CCS(=O)(=O)Nc1ccc2c(c1)/C(=C(\Nc1ccc(CN3CCCCC3)cc1)c1ccccc1)C(=O)N2`, the outcome in [1] was Active. Moreover, the inhibition result in test [2] is “Active”.
For the molecule `COC(=O)Nc1nc2cc(C(=O)c3cccs3)ccc2[nH]1`, in [3], the inhibition result was “Active”.
As for `CC(C)C[C@@H](C=O)NC(=O)[C@H](CC(C)C)NC(=O)[C@H](CC(C)C)NC(=O)OCc1ccccc1` (Cbz-Leu-Leu-Leu-aldehyde), in test [4], the outcome was Active.
In the case of `CC[C@@H]1C(=O)N(C)c2cnc(Nc3ccc(C(=O)NC4CCN(C)CC4)cc3OC)nc2N1C1CCCC1` [BI-2536], the outcome in [5] and in [14] was inactive. The result in test [6], in test [7], in test [8], in test [9], in [10] and in [11] was Active. Further, the result in test [12], in test [13], in test [16], in test [17], in [18] and in test [19] was Active. Also, the outcome in [20], in test [21], in [22], in test [23], in [24] and in test [25] was Active. The outcome in test [26] and in test [27] was Active. Also, the Activity in test [15] is reported as 30%.
In the case of `CCOC(=O)C1=C(C)NC(=S)NC1c1cccc(O)c1` (stereo not drawn) [MONASTROL], the outcome in test [28], in test [30] and in test [31] was Active. Also, the inhibition result in test [29] and in test [32] was “Active” each time. Also, the Activity in [15] worked out at 5%.

(Values after ChEMBL document CHEMBL5715940 (Curr Biol, 2007).)
